From article PMC2846716 (Journal of medicinal chemistry, 2010)
Where a SMILES comes first, the peptide text is derived from it. [ ]: non-standard residue; d: D form. The star is where a group is joined. NMeW = CN[C@@H](Cc1c[nH]c2ccccc12)C(=O)O; Palmitoyl = CCCCCCCCCCCCCCCC(=O)*

What was measured:
[1] = in vitro stability in rat serum; ref [5], [7]; cited from earlier work
CF-1 mice [2] = assay: 6 Hz corneal stimulation seizure test; assay type: in vivo, mouse; settings: 4 mg/kg i.p.; for Primary Screening at 4 mg/kg (6 Hz, 32 mA), mice protected / tested, 15 min: challenged 15 min after administration; for Primary Screening at 4 mg/kg (6 Hz, 32 mA), mice protected / tested, 30 min: challenged 30 min after administration; for Primary Screening at 4 mg/kg (6 Hz, 32 mA), mice protected / tested, 60 min: challenged 60 min after administration; for Primary Screening at 4 mg/kg (6 Hz, 32 mA), mice protected / tested, 120 min: challenged 120 min after administration; for Primary Screening at 4 mg/kg (6 Hz, 32 mA), mice protected / tested, 240 min: challenged 240 min after administration
CF-1 mice [3] = settings: after i.p. administration; ref [5]; cited from earlier work
[4] = Stability in 25% rat serum; assay type: in vitro ADME; settings: 25% rat serum at 37° C, 0.1M Tris-HCl pH 7.5, 20 μM peptide, up to 8 hours, HPLC
[5] = LogD by HPLC capacity factor; assay type: physicochemical; settings: RP-HPLC, Vydac diphenyl column (capacity factor k')
hGalR2 = molecular target: T1, hGalR2 (Homo sapiens, UniProt O43603); assay type: binding; settings: relative to [N-Me, des-Sar]Gal-B2
T1 sequence (O43603 1-387): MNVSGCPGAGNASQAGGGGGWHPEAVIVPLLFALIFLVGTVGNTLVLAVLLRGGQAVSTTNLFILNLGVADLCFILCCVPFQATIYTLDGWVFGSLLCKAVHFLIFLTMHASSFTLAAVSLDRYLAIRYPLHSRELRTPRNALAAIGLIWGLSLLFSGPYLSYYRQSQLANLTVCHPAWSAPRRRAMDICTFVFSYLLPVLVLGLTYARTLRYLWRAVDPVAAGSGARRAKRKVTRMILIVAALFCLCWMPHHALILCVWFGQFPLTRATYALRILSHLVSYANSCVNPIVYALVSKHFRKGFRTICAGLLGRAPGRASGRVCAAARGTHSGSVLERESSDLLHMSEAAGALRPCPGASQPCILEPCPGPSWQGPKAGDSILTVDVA

GalR3 = settings: binding; ref [18]; cited from earlier work

Q: What does the source list for `CCCCCCCCCCCCCCCC(=O)NCCCC[C@H](NC(=O)[C@H](CCCCN)NC(=O)[C@H](CCCCN)NC(=O)[C@@H]1CCCN1C(=O)CNC(=O)[C@H](CC(C)C)NC(=O)[C@H](CC(C)C)NC(=O)[C@H](Cc1ccc(O)cc1)NC(=O)CNC(=O)[C@H](C)NC(=O)[C@H](CO)NC(=O)[C@H](CC(N)=O)NC(=O)[C@H](CC(C)C)NC(=O)[C@@H](NC(=O)[C@H](Cc1c[nH]c2ccccc12)NC(=O)CNC)[C@@H](C)O)C(=O)N[C@@H](CCCCN)C(N)=O` [Gal-B2]?
A: serum half-life in rat serum [1]: 9.4 h; Primary Screening at 4 mg/kg (6 Hz, 32 mA), mice protected / tested, 15 min (CF-1 mice [2]): 3/4; Primary Screening at 4 mg/kg (6 Hz, 32 mA), mice protected / tested, 30 min (CF-1 mice [2]): 4/4; Primary Screening at 4 mg/kg (6 Hz, 32 mA), mice protected / tested, 60 min (CF-1 mice [2]): 4/4; Primary Screening at 4 mg/kg (6 Hz, 32 mA), mice protected / tested, 120 min (CF-1 mice [2]): 4/4; Primary Screening at 4 mg/kg (6 Hz, 32 mA), mice protected / tested, 240 min (CF-1 mice [2]): 0/4; ED50, 6 Hz corneal stimulation mouse model (CF-1 mice [3]): 0.8 mg/kg; half-life in 25% rat serum [4]: 9.4 h

Q: Which results are given for `CCCCCCCCCCCCCCCC(=O)NCCCC[C@H](NC(=O)[C@H](CCCCN)NC(=O)[C@H](CCCCN)NC(=O)[C@@H]1CCCN1C(=O)CNC(=O)[C@H](CC(C)C)NC(=O)[C@H](CC(C)C)NC(=O)[C@H](Cc1ccc(O)cc1)NC(=O)CNC(=O)[C@H](C)NC(=O)[C@H](CO)NC(=O)[C@H](CC(N)=O)NC(=O)[C@H](CC(C)C)NC(=O)[C@@H](NC(=O)[C@@H](N)Cc1c[nH]c2ccccc12)[C@@H](C)O)C(=O)N[C@@H](CCCCN)C(N)=O` [Gal-B5] (H-WTLNSAGYLLGPKKK(Palmitoyl)K-NH2)?
A: Primary Screening at 4 mg/kg (6 Hz, 32 mA), mice protected / tested, 15 min (CF-1 mice [2]): 2/4; Primary Screening at 4 mg/kg (6 Hz, 32 mA), mice protected / tested, 30 min (CF-1 mice [2]): 1/4; Primary Screening at 4 mg/kg (6 Hz, 32 mA), mice protected / tested, 60 min (CF-1 mice [2]): 2/4; Primary Screening at 4 mg/kg (6 Hz, 32 mA), mice protected / tested, 120 min (CF-1 mice [2]): 2/4; Primary Screening at 4 mg/kg (6 Hz, 32 mA), mice protected / tested, 240 min (CF-1 mice [2]): 0/3; chromatographic logD [5]: 1.22 ± 0.02; reduction of binding toward GalR2 on removal of N-terminal methyl group (hGalR2): 2 fold

Q: For `CCCCCCCCCCCCCCCC(=O)NCCCC[C@H](NC(=O)[C@H](CCCCN)NC(=O)[C@H](CCCCN)NC(=O)[C@@H]1CCCN1C(=O)CNC(=O)[C@H](CC(C)C)NC(=O)[C@H](CC(C)C)NC(=O)[C@H](Cc1ccc(O)cc1)NC(=O)CNC(=O)[C@H](C)NC(=O)[C@H](CO)NC(=O)[C@H](CC(N)=O)NC(=O)[C@H](CC(C)C)NC(=O)[C@@H](NC(=O)[C@H](Cc1c[nH]c2ccccc12)NC(C)=O)[C@@H](C)O)C(=O)N[C@@H](CCCCN)C(N)=O` [[N-Ac, des-Sar]Gal-B2] (Ac-WTLNSAGYLLGPKKK(Palmitoyl)K-NH2), which chromatographic logD [5] is on record?
A: 1.28 ± 0.02

Q: What does the source list for `CCCCCCCCCCCCCCCC(=O)NCCCC[C@H](NC(=O)[C@H](CCCCN)NC(=O)[C@H](CCCCN)NC(=O)[C@@H]1CCCN1C(=O)CNC(=O)[C@H](CC(C)C)NC(=O)[C@H](CC(C)C)NC(=O)[C@H](Cc1ccc(O)cc1)NC(=O)CNC(=O)[C@H](C)NC(=O)[C@H](CO)NC(=O)[C@H](CC(N)=O)NC(=O)[C@H](CC(C)C)NC(=O)[C@@H](NC(=O)[C@H](Cc1c[nH]c2ccccc12)NC)[C@@H](C)O)C(=O)N[C@@H](CCCCN)C(N)=O` [[N-Me, des-Sar]Gal-B2] (H-[NMeW]TLNSAGYLLGPKKK(Palmitoyl)K-NH2)?
A: Primary Screening at 4 mg/kg (6 Hz, 32 mA), mice protected / tested, 15 min (CF-1 mice [2]): 0/4; Primary Screening at 4 mg/kg (6 Hz, 32 mA), mice protected / tested, 30 min (CF-1 mice [2]): 3/4; Primary Screening at 4 mg/kg (6 Hz, 32 mA), mice protected / tested, 60 min (CF-1 mice [2]): 3/4; Primary Screening at 4 mg/kg (6 Hz, 32 mA), mice protected / tested, 120 min (CF-1 mice [2]): 1/4; Primary Screening at 4 mg/kg (6 Hz, 32 mA), mice protected / tested, 240 min (CF-1 mice [2]): 0/3; chromatographic logD [5]: 1.29 ± 0.01

Q: Which “Primary Screening at 4 mg/kg (6 Hz, 32 mA), mice protected / tested, 15 min” value (CF-1 mice [2]) does the source give for `CCCCCCCCCCCCCCCC(=O)NCCCC[C@H](NC(=O)[C@H](CCCCN)NC(=O)[C@H](CCCCN)NC(=O)[C@@H]1CCCN1C(=O)CNC(=O)[C@H](CC(C)C)NC(=O)[C@H](CC(C)C)NC(=O)[C@H](Cc1ccc(O)cc1)NC(=O)CNC(=O)[C@H](C)NC(=O)[C@H](CO)NC(=O)[C@H](CC(N)=O)NC(=O)[C@H](CC(C)C)NC(=O)[C@@H](NC(=O)[C@H](Cc1c[nH]c2ccccc12)NC(=O)[C@H](C)N)[C@@H](C)O)C(=O)N[C@@H](CCCCN)C(N)=O` [[Sar1Ala]Gal-B2] (H-AWTLNSAGYLLGPKKK(Palmitoyl)K-NH2) here?
A: 4/4

Q: What about the “Primary Screening at 4 mg/kg (6 Hz, 32 mA), mice protected / tested, 30 min” value (CF-1 mice [2]) of the same molecule?
A: 4/4

Q: And the “Primary Screening at 4 mg/kg (6 Hz, 32 mA), mice protected / tested, 60 min” value (CF-1 mice [2])?
A: 4/4

Q: What about the “Primary Screening at 4 mg/kg (6 Hz, 32 mA), mice protected / tested, 120 min” value (CF-1 mice [2]) of the same molecule?
A: 1/4

Q: What about the “Primary Screening at 4 mg/kg (6 Hz, 32 mA), mice protected / tested, 240 min” value (CF-1 mice [2]) of the same molecule?
A: 0/4

Q: What about the chromatographic logD [5] of the same molecule?
A: 1.28 ± 0.01

Q: Which “Primary Screening at 4 mg/kg (6 Hz, 32 mA), mice protected / tested, 15 min” value (CF-1 mice [2]) does the source give for `CCCCCCCCCCCCCCCC(=O)NCCCC[C@H](NC(=O)[C@H](CCCCN)NC(=O)[C@H](CCCCN)NC(=O)[C@@H]1CCCN1C(=O)CNC(=O)[C@H](CC(C)C)NC(=O)[C@H](CC(C)C)NC(=O)[C@H](Cc1ccc(O)cc1)NC(=O)CNC(=O)[C@H](C)NC(=O)[C@H](CO)NC(=O)[C@H](CC(N)=O)NC(=O)[C@H](CC(C)C)NC(=O)[C@@H](NC(=O)[C@H](Cc1c[nH]c2ccccc12)NC(=O)CN)[C@@H](C)O)C(=O)N[C@@H](CCCCN)C(N)=O` [[Sar1Gly]Gal-B2] here?
A: 1/4

Q: What about the “Primary Screening at 4 mg/kg (6 Hz, 32 mA), mice protected / tested, 30 min” value (CF-1 mice [2]) of the same molecule?
A: 3/4

Q: What about the “Primary Screening at 4 mg/kg (6 Hz, 32 mA), mice protected / tested, 60 min” value (CF-1 mice [2]) of the same molecule?
A: 3/4

Q: What about the “Primary Screening at 4 mg/kg (6 Hz, 32 mA), mice protected / tested, 120 min” value (CF-1 mice [2]) of the same molecule?
A: 0/4

Q: What about the “Primary Screening at 4 mg/kg (6 Hz, 32 mA), mice protected / tested, 240 min” value (CF-1 mice [2]) of the same molecule?
A: 0/3

Q: What about the chromatographic logD [5] of the same molecule?
A: 1.3 ± 0.04

Q: Which “preference towards GalR2 above GalR3” value (GalR3) does the source give for WTLNSAGYLL-CONH2 [Gal(2-11)] here?
A: 12 fold
